Assays:
[1] = tested on: PTGES, ALOX5, LTC4S, LTA4H and ALOX5AP mRNA in liver; assay: Liver oxylipin synthase mRNAs by qPCR in chemotherapy-induced senescence model; format: in vivo, p16-3MR mice; conditions: FIG. 3B
Description: A. IMR-90 cells were proliferative in 10% serum, made quiescent by incubation for 3 days in 0.2% serum, or made senescent by treatment with 10 Gy X-rays (IR) or ethidium bromide to induce mitochondrial-dysfunction induced senescence (MiDAS). Lipids were extracted from proliferating (PRO—10%), quiescent (QUI—0.2%), IR-induced senescent (SEN(IR)—10% or 0.2% serum), or mitochondrial dysfunction-associated senescent (MiDAS-0.2%) cells and analyzed by liquid chromatography combined with mass spectrometry (LC-MS). Putative oxylipins (A) were detected in control and senescent cells. B. p16-3MR mice were given a single dose (10 mg/kg) of doxorubicin (DOXO) or phosphate-buffered saline (PBS) by intraperitoneal (i.p.) injection. After 5 days, mice were given GCV (25 mg/kg) or vehicle by i.p. injection for 5 consecutive days. Livers were harvested on day 10 and analyzed for oxylipin synthase mRNAs by qPCR. Heat maps indicate averages of at least 5 mice (*=p<0.05, 1-way ANOVA). C. C57BL/6 mice were aged for 6 (young) or 24 (old) months. Kidneys were harvested from mice and analyzed for oxylipin synthase RNA levels by qPCR.
Briefly, mice were treated with either control (phosphate buffered saline, (PBS)), doxorubicin (DOXO), or the combination of DOXO and ganciclovir (GCV). GCV is known to eliminate senescent cells in the liver at the concentrations administered, i.e., 25 mg/kg.

[2] = tested on: senescent cells; assay: Ferroptosis induction in senescent relative to non-senescent cells (general statement); format: cell-based; conditions: general statement in description
Description: While many of these oxylipins can drive pathology, such as in the case of pulmonary fibrosis, this may also result in a vulnerability that allows them to be targeted for elimination. Among the oxylipin synthesis enzymes elevated during senescence are arachidonate 5-, 12-, 15-, and 15B-lipoxygenases (ALOX5, 12, 15, and 15B), as well as ALOX5 activating protein (ALOX5AP). These lipoxygenases produce oxylipins, such as the leukotrienes, by acting on free arachidonic acid inside of the cell. However, these enzymes may also peroxidize arachidonic acid that is bound (esterified) in the plasma membrane. Lipid peroxides then react with labile iron in the cytosol via Fenton reaction to result in an exponential chain reaction of lipid peroxidation, ultimately resulting in a form of cell death known as “ferroptosis”. […] Other compounds, such as artemisinin and its derivatives interact with labile iron to increase lipid peroxidation. Since senescent cells also show elevated levels of labile iron, in addition to lipoxygenases, these cells are especially sensitive to induction of ferroptosis. […] As used herein, “senolytic” refers to the property of a molecule, compound, or composition to selectively kill senescent cells. Thus, ML-210, RSL3, FIN56, erastin, artemisinin, and related molecules are useful for the treatment of chronic degenerative diseases that are characterized by cellular senescence.

[3] = tested on: senescent cells induced with 10 Gy of IR; assay: Cell survival (CCK8) of IR-induced senescent cells vs non-senescent controls; format: cell-based
Description: (§1) A. RNA levels of GPX4 in cells induced to senesce by ionizing radiation (IR), mitochondrial dysfunction (MiDAS), or lentiviral overexpression of […] [SEN(RAS)]. Non-senescent cells induced by either mock treatment (NS) or empty lentiviral vector (Vector) served as controls. RNA levels measure by quantitative RT-PCR and normalized to actin. B—C. Cells were induced to senesce by 24 h of treatment with 250 nM doxorubicin [SEN(DOXO)] or control [NS (DMSO)], and 10 days later were given the indicated drug doses for 24 h. D. Cells were induced to senesce with 10 Gy of IR and 10 days later given the indicated drug doses for 24 h. E-F. Cells were induced to senesce with 10 Gy of IR and 10 days later given the indicated drug doses for 72 h. Cell survival was then measured by colorimetric assay (CCK8). *=p<0.01
Preliminary data: Senescent cells appear primed to undergo ferroptosis. Not only do they elevate ALOX enzymes (FIG. 1A) and PUFA levels (FIG. 1B), but the lipid hydroxide products of these enzymes are elevated (FIG. 1C), as are byproducts of lipid peroxidation, (e.g. 4-HNE and 4-HDDE (FIG. 1D)). Lipid peroxidation-sensitive probes, e.g., C11-BODIPY, indicate increased lipid peroxidation during senescence. Furthermore, senescent cells accumulate iron in their cytosol. […]

[4] = tested on: IR-induced senescent [SEN(IR)] cells; assay: Rescue of RSL3-induced ferroptosis in IR-induced senescent cells (CCK8 survival); format: cell-based
Description: Non-senescent (NS: mock irradiated) or IR-induced senescent [SEN(IR)] cells were treated 10 days after irradiation with […] RSL3 and the indicated ferroptosis antagonist, followed by cell survival measurement by CCK8 assay. A. Cells were treated with ferrostatin-1 (FSN1—1 μM) at the same time as RSL3. B. Cells were given the ALOX5 and ALOX15 inhibitor zileuton (Zil—50 μM) at the same time as RSL3. C. Cells were given iron chelators deferoxamine (DFX—25 μM) or salicylaldehyde isonicotinoyl hydrazine (SIH—100 μM) at the same time as RSL3. D. Cells were given ACSL4 inhibitors rosiglitazone (ROSI—100 μM) or PRGL493 (PRGL—100 μM) for 72 h prior to RSL3. ***=p<0.001
The inventor next sought to further elucidate the potential mechanisms for induction of ferroptosis in senescent cells by the disclosed senolytic drugs. The inventor rescued ferroptosis in senescent cells induced by contacting the cells with RSL3 and ferrostatin-1 (FSN1), which inhibits lipid peroxidation (FIG. 6A), zileuton (5- and 15-lipoxygenase inhibitor), which protects cells from lipoxygenase-induced membrane peroxidation (FIG. 6B), iron chelators deferoxamine or salicylaldehyde isonicotinoyl hydrazine (FIG. 6C), and ACSL4 inhibitors rosiglitazone or PRGL493 (FIG. 6D).

[5] = tested on: senescent cells [SEN(DOXO)]; assay: Cell survival (CCK8) of doxorubicin-induced senescent cells vs non-senescent controls; format: cell-based; conditions: SEN(DOXO) (250 nM doxorubicin 24 h) vs NS (DMSO); drug given 10 days later for 24 h; FIG. 5B-C
Description: as §1, with “*=p<0.01 Preliminary data: Senescent cells appear primed to undergo ferroptosis. Not only do they elevate ALOX enzymes (FIG. 1A) and PUFA levels (FIG. 1B), but the lipid hydroxide products of these enzymes are elevated (FIG. 1C), as are byproducts of lipid peroxidation, (e.g. 4-HNE and 4-HDDE (FIG. 1D)). Lipid peroxidation-sensitive probes, e.g., C11-BODIPY, indicate increased lipid peroxidation during senescence. Furthermore, senescent cells accumulate iron in their cytosol. […]” for “*=p<0.01”

[6] = given at the same time as 0.1 mM RSL3, FSN1 1 μM, Zil 50 μM, DFX 25 μM, SIH 100 μM, FIG. 6A-C

Row | Compound | selective induction of ferroptosis in senescent cells relative to non-senescent cells [2] | rescue of RSL3-induced ferroptosis in senescent cells (cell survival, CCK8) [4, 6] | further results
1 | COc1cccc2c1C(=O)c1c(O)c3c(c(O)c1C2=O)C[C@@](O)(C(=O)CO)C[C@@H]3O[C@H]1C[C@H](N)[C@H](O)[C@H](C)O1 [DOXO, doxorubicin] | – | – | liver mRNA levels of PTGES, ALOX5, LTC4S, LTA4H and ALOX5AP ([1]; single dose 10 mg/kg i.p. vs PBS, livers harvested day 10): DOXO-dependent increase in the mRNA levels
2 | O=S(=O)(NC1CCCCC1)c1ccc2c(c1)C(=NO)c1cc(S(=O)(=O)NC3CCCCC3)ccc1-2 [FIN56] | selectively induces ferroptosis in senescent cells relative to non-senescent cells | – | –
3 | Nc1nc(O)c2ncn(COC(CO)CO)c2n1 [GCV, ganciclovir] | – | – | effect on DOXO-dependent increase of liver mRNA levels of PTGES, ALOX5, LTC4S, LTA4H and ALOX5AP ([1]; 25 mg/kg i.p. for 5 consecutive days, 5 days after DOXO): abrogates the DOXO-dependent increase in the mRNA levels
4 | Cc1onc(C(=O)N2CCN(C(c3ccc(Cl)cc3)c3ccc(Cl)cc3)CC2)c1[N+](=O)[O-] [ML-210] | selectively induces ferroptosis in senescent cells relative to non-senescent cells | – | selective induction of ferroptosis in senescent cells (cell survival, CCK8) ([3]; 10 Gy IR senescent vs non-senescent (NS) cells, drug given 10 days later for 24 h, FIG. 5D): selectively induced ferroptosis in senescent cells and not control non-senescent (NS) cells
5 | CC(=O)NC1=NC(c2cn(-c3ccccc3)nc2-c2ccc(C)o2)n2c(nc3ccccc32)N1 (stereo not drawn) [PRGL493] | – | – | rescue of RSL3-induced ferroptosis in senescent cells (cell survival, CCK8) ([4]; given for 72 h prior to 0.1 mM RSL3, ROSI 100 μM, PRGL 100 μM, FIG. 6D): rescued induction of ferroptosis in senescent cells
6 | COC(=O)c1ccc([C@H]2c3[nH]c4ccccc4c3CC(C(=O)OC)N2C(=O)CCl)cc1 (stereo partly drawn) [RSL3] | selectively induces ferroptosis in senescent cells relative to non-senescent cells | – | selective killing of senescent cells (cell survival, CCK8) [5]: selectively killed senescent cells
7 | C[C@@H]1CC[C@H]2[C@@H](C)C(=O)O[C@@H]3O[C@@]4(C)CC[C@@H]1[C@]32OO4 [artemisinin] | – | – | cell death in senescent cells vs control cells (cell survival, CCK8) ([3]; 10 Gy IR, drug given 10 days later for 72 h, several concentrations, FIG. 5E-5F): induced significantly more cell death in senescent cells than control cells
8 | CCOC(=O)c1ccc(NC2CCCCC2)c(N)c1 [ferrostatin-1] | – | rescued induction of ferroptosis in senescent cells | –
9 | CC(c1cc2ccccc2s1)N(O)C(N)=O (stereo not drawn) [zileuton] | – | rescued induction of ferroptosis in senescent cells | –
10 | salicylaldehyde isonicotinoyl hydrazine | – | rescued induction of ferroptosis in senescent cells | –
